Measurements as given in ChEMBL document CHEMBL5375999, “Discovery of a Dual Tubulin and Neuropilin-1 (NRP1) Inhibitor with Potent In Vivo Anti-Tumor Activity via Pharmacophore-based Docking Screening, Structure Optimization, and Biological Evaluation” (J Med Chem, 2023).
The source made the active and inactive calls. The rule behind the calls is not given here.

Columns and labels:
[1] = biological target: Vascular endothelial growth factor A, long form (Homo sapiens, UniProt P15692); assay: Inhibition of VEGF (unknown origin)
PC-3 [2] = assay: Induction of apoptosis in human PC-3 cells assessed as necrotic cells at 2.5 uM by Annexin-V FITC staining based flow cytometry analysis (reference value: 0.059%); type: functional
Tubulin (Homo sapiens) [3] = biological target: T1, Tubulin (Homo sapiens) (UniProt P68371+Q9H4B7+P0DPH7+P68366+Q13509+Q71U36+P04350+Q3ZCM7+P07437+P68363+Q9BQE3+Q6PEY2+Q13885+Q9BVA1+Q9BUF5); assay: Inhibition of tubulin polymerization in human PC-3 cells assessed as increase in nuclear disruption incubated for 48 hrs by immunofluorescence assay; type: cell-based; conditions: dose 0.1-12.5 µM
[4] = biological target: Cyclin-G-associated kinase (Homo sapiens, UniProt O14976); assay: Inhibition of GAK (unknown origin)
PC-3 [5] = assay: Induction of apoptosis in human PC-3 cells assessed as late apoptotic cells at 2.5 uM by Annexin-V FITC staining based flow cytometry analysis (reference value: 1.67%); type: functional
[6] = biological target: Cyclin-dependent kinase 9 (Homo sapiens, UniProt P50750); assay: Inhibition of CDK9 (unknown origin)
[7] = Toxicity in BALB/c mouse xenografted with human PC-3 cells assessed as change in heart morphology at 5 to 10 mg/kg, ip administered every 4 days for 20 days by H and E staining based inverted microscopic assay; type: organism-based; conditions: in vivo, 480 h, dose 5-10 mg/kg, time 20 day
PC-3 [8] = assay: Induction of cell cycle arrest in human PC-3 cells assessed as S phase cells at 0.5 uM by flow cytometry analysis (reference value: 2%); type: functional
[9] = biological target: Ankyrin repeat and protein kinase domain-containing protein 1 (Homo sapiens, UniProt Q8NFD2); assay: Inhibition of ANKK1 (unknown origin)
[10] = biological target: Serine/threonine-protein kinase 38 (Homo sapiens, UniProt Q15208); assay: Inhibition of NDR1 (unknown origin)
PC-3 [11] = assay: Induction of cell cycle arrest in human PC-3 cells assessed as decrease in cyclin-B1 expression at 0.5 to 12.5 uM incubated for 48 hrs by Western blotting analysis; type: functional, cell-based; conditions: dose 0.5-12.5 µM
PC-3 [12] = assay: Cytotoxicity against human PC-3 cells assessed as inhibition of cell viability incubated for 48 hrs by MTT assay; type: functional, cell-based; conditions: PC-3, 48 h
[13] = biological target: Serine/threonine-protein kinase PLK1 (Homo sapiens, UniProt P53350); assay: Inhibition of PLK1 (unknown origin)
PC-3 [14] = assay: Inhibition of colony formation in human PC-3 cells incubated for 10 days by crystal violet staining based assay; type: functional, cell-based; conditions: dose 0.1-12.5 µM, time 10.0 day
PC-3 [15] = assay: Induction of apoptosis in human PC-3 cells assessed as increase in cleaved PARP expression at 0.5 to 12.5 uM incubated for 48 hrs by Western blotting analysis; type: functional, cell-based; conditions: dose 0.5-12.5 µM
[16] = biological target: Atypical kinase COQ8A, mitochondrial (Homo sapiens, UniProt Q8NI60); assay: Inhibition of ADCK3 (unknown origin)
PC-3 [17] = assay: Induction of cell cycle arrest in human PC-3 cells assessed as S phase cells at 12.5 uM by flow cytometry analysis (reference value: 2%); type: functional
[18] = biological target: RAC-gamma serine/threonine-protein kinase (Homo sapiens, UniProt Q9Y243); assay: Inhibition of AKT3 (unknown origin)
PC-3 [19] = assay: Induction of cell cycle arrest in human PC-3 cells assessed as G0/G1 phase cells at 0.5 uM by flow cytometry analysis (reference value: 94.76%); type: functional
[20] = Cytotoxicity against human PrEC cells assessed as inhibition of cell viability incubated for 48 hrs by MTT assay; type: toxicity, cell-based
[21] = biological target: Neuropilin-1 (Homo sapiens) (UniProt O14786); assay: Inhibition of [125I]-VEGF-A165 binding to NRP1 (unknown origin) transfected in HUVECs at 12 uM incubated for 2 hrs by plate reader analysis relative to control; type: cell-based; conditions: HUVEC
PC-3 [22] = assay: Induction of cell cycle arrest in human PC-3 cells assessed as G0/G1 phase cells at 2.5 uM by flow cytometry analysis (reference value: 94.76%); type: functional
[23] = biological target: Atypical kinase COQ8B, mitochondrial (Homo sapiens, UniProt Q96D53); assay: Inhibition of ADCK4 (unknown origin)
PC-3 [24] = assay: Induction of apoptosis in human PC-3 cells assessed as necrotic cells at 0.1 uM by Annexin-V FITC staining based flow cytometry analysis (reference value: 0.059%); type: functional
[25] = biological target: Tyrosine-protein kinase Blk (Homo sapiens, UniProt P51451); assay: Inhibition of BLK (unknown origin)
HUVEC = assay: Antimigratory activity against HUVECs at 0.1 to 12.5 uM incubated for 24 to 48 hrs by wound healing assay; type: functional, cell-based; conditions: Homo sapiens, dose 0.1-12.5 µM, time 24-48 hrs
PC-3 [26] = assay: Induction of apoptosis in human PC-3 cells assessed as necrotic cells at 0.5 uM by Annexin-V FITC staining based flow cytometry analysis (reference value: 0.059%); type: functional
Tubulin (Homo sapiens) [27] = biological target: T1, Tubulin (Homo sapiens); assay: Inhibition of tubulin polymerization in human PC-3 cells assessed as appearance of blurred nucleus at 2.5 to 12.5 uM incubated for 48 hrs by immunofluorescence assay; type: cell-based; conditions: dose 2.5-12.5 µM
[28] = biological target: Cyclin-dependent kinase 4 (Homo sapiens, UniProt P11802); assay: Inhibition of CDK4 (unknown origin)
[29] = Toxicity in BALB/c mouse xenografted with human PC-3 cells assessed as change in lung morphology at 5 to 10 mg/kg, ip administered every 4 days for 20 days by H and E staining based inverted microscopic assay; type: organism-based; conditions: in vivo, 480 h, dose 5-10 mg/kg, time 20 day
[30] = biological target: T2, Vascular endothelial growth factor receptor 2 (Homo sapiens, UniProt P35968); assay: Inhibition of VEGFR2 (unknown origin)
[31] = biological target: T2, Vascular endothelial growth factor receptor 2; assay: Inhibition of VEGF-induced VEGFR2 signal pathway in HUVECs assessed as reduction in p-VEGFR2 level; type: cell-based; conditions: HUVEC, dose 0.1-12.5 µM
Activin receptor type-2A = Activin receptor type-2A (Homo sapiens, UniProt P27037); assay: Inhibition of ACVR2 (unknown origin)
Focal adhesion kinase 1 = Focal adhesion kinase 1 (Homo sapiens, UniProt Q05397); assay: Inhibition of FAK (unknown origin)
[32] = biological target: Serine/threonine-protein kinase ICK (Homo sapiens, UniProt Q9UPZ9); assay: Inhibition of ICK (unknown origin)
[33] = biological target: ALK tyrosine kinase receptor (Homo sapiens, UniProt Q9UM73); assay: Inhibition of ALK (unknown origin)
CDK6/cyclin D3 = CDK6/cyclin D3 (Homo sapiens, UniProt Q00534); assay: Inhibition of CDK6/Cyclin D3 (unknown origin); type: protein-complex assay

T2 sequence (P35968 whole entry): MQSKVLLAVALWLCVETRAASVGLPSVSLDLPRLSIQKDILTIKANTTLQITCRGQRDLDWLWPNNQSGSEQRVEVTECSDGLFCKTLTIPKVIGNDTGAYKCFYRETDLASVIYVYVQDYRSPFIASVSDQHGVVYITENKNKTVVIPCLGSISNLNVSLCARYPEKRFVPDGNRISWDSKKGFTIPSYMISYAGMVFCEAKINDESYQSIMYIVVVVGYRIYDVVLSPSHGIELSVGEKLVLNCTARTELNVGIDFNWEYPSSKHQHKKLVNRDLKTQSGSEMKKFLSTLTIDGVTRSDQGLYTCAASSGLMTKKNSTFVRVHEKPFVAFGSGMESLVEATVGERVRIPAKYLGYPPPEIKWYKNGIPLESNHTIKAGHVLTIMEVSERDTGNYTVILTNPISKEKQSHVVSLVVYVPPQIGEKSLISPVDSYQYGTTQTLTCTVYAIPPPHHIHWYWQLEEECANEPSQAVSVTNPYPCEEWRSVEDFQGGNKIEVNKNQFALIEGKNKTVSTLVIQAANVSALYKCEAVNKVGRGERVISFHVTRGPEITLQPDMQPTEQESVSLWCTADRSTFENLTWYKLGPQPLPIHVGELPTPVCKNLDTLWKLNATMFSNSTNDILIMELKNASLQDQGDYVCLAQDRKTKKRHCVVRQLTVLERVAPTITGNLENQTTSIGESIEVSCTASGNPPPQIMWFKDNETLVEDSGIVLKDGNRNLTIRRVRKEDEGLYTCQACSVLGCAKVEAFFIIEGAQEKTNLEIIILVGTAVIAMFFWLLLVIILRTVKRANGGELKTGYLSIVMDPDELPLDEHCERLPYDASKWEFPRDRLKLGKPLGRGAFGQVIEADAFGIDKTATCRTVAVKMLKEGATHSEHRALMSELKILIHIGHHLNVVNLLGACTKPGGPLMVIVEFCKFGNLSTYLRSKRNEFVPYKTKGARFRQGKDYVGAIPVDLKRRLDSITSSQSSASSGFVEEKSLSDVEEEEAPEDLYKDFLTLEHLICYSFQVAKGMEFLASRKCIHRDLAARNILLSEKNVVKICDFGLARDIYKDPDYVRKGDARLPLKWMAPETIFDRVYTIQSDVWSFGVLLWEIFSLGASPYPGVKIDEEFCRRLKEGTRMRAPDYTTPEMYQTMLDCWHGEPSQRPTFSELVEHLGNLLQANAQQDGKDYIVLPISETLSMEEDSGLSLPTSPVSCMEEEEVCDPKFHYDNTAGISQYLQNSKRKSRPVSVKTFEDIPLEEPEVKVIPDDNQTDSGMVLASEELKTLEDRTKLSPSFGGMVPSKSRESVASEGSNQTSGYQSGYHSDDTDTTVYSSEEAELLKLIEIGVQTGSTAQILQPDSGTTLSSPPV
Cyclin-dependent kinase 9, sequence (P50750 whole entry): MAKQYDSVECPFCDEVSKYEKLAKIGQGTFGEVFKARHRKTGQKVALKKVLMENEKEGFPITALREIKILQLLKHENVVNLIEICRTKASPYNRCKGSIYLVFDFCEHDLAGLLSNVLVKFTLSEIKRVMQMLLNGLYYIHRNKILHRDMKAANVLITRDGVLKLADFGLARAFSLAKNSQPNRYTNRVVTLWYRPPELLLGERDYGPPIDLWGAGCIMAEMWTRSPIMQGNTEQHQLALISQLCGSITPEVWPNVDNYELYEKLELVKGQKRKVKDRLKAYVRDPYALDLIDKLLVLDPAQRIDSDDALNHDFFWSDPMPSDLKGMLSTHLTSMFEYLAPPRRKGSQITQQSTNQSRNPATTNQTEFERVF
Vascular endothelial growth factor A, long form, sequence (P15692 whole entry): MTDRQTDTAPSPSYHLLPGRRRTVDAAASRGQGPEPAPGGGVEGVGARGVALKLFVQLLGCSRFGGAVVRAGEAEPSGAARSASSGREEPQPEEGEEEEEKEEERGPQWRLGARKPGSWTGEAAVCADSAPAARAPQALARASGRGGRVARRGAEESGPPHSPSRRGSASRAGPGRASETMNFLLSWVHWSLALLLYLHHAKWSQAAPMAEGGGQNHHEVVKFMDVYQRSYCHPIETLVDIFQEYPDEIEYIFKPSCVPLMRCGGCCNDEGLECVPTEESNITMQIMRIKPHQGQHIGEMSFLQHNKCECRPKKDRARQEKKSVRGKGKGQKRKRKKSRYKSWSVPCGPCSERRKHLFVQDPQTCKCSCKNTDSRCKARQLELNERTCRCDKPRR
ALK tyrosine kinase receptor, sequence (Q9UM73 whole entry): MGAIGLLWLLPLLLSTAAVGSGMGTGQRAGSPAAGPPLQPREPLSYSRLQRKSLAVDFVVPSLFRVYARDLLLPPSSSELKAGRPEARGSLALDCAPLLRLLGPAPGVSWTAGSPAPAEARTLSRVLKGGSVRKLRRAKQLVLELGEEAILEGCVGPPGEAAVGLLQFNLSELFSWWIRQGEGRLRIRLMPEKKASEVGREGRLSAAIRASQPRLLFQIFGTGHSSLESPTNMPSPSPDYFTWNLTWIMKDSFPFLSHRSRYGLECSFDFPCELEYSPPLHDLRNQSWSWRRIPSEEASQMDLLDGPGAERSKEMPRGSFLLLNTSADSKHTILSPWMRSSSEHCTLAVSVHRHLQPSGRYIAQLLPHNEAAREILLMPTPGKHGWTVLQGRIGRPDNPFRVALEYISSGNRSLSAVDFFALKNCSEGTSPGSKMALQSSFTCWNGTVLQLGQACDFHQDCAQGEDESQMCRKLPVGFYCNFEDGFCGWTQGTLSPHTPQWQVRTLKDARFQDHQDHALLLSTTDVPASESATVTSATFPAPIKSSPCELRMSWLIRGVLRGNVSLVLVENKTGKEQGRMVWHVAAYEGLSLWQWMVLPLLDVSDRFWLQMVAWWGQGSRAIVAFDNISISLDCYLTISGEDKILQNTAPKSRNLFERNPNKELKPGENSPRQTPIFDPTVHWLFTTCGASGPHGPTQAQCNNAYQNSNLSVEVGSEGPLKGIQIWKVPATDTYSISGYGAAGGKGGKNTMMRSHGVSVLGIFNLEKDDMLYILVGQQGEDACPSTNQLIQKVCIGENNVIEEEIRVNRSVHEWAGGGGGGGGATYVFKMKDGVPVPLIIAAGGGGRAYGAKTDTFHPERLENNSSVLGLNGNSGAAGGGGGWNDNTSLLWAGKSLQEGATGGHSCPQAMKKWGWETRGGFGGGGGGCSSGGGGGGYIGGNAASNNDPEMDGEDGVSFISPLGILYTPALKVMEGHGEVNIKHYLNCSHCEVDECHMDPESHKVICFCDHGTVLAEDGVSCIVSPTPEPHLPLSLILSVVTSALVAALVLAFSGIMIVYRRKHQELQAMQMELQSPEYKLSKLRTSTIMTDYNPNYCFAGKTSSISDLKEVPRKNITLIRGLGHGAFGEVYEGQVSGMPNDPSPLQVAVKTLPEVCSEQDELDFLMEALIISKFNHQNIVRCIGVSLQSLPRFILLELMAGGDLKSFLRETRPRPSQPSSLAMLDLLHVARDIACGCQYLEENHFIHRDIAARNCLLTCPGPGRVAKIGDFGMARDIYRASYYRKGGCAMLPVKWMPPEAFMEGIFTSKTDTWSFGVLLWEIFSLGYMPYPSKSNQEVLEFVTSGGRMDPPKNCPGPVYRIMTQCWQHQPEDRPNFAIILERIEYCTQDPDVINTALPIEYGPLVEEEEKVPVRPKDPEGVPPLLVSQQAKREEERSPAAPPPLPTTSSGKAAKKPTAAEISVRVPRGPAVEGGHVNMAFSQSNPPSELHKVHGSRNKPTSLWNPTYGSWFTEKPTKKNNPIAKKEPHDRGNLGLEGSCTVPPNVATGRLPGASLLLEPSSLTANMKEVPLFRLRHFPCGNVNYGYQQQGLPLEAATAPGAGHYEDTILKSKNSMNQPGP
RAC-gamma serine/threonine-protein kinase, sequence (Q9Y243 whole entry): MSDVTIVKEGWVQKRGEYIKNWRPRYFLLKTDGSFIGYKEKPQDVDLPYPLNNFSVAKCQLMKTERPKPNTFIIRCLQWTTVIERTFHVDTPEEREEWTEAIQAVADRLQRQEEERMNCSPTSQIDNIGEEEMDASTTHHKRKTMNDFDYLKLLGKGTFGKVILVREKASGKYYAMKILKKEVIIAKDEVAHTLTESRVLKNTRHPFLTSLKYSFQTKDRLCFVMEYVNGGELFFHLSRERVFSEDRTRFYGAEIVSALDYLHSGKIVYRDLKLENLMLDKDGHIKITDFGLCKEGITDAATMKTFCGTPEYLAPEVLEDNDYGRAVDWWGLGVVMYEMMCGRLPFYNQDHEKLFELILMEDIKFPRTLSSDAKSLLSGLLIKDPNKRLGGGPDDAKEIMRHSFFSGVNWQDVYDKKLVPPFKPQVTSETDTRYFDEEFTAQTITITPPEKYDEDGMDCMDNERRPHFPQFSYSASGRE
Activin receptor type-2A, sequence (P27037 whole entry): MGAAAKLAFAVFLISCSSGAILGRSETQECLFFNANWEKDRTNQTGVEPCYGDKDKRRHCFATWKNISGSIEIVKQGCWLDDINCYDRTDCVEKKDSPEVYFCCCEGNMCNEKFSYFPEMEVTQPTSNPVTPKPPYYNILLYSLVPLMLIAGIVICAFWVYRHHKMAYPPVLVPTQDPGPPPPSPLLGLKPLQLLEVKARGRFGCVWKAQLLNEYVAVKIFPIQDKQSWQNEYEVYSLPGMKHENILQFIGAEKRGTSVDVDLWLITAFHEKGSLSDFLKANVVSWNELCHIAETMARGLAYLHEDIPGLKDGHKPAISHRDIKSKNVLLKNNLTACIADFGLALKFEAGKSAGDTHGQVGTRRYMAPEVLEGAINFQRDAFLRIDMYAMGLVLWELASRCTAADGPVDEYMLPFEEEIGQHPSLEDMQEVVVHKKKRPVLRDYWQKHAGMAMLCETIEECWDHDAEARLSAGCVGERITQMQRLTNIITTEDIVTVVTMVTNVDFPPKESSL
Cyclin-dependent kinase 4, sequence (P11802 whole entry): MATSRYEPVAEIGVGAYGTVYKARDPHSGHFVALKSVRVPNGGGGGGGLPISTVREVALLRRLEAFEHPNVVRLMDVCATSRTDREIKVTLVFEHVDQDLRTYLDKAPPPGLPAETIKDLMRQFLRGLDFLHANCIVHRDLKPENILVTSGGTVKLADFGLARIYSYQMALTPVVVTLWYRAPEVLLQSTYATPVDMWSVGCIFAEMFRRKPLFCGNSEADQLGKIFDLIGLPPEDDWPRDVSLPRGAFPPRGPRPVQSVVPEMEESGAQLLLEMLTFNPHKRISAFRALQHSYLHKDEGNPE

IC50 [1]: > 10 µM
inhibition (Tubulin (Homo sapiens) [3]): Dose-Dependent Effect
IC50 [4]: > 10 µM
IC50 [6]: > 10 µM
IC50 [9]: > 10 µM
IC50 [10]: > 10 µM
IC50 [13]: > 10 µM
IC50 [16]: > 10 µM
IC50 [18]: > 10 µM
inhibition [21]: 94%
IC50 [23]: > 10 µM
IC50 [25]: > 10 µM
inhibition (Tubulin (Homo sapiens) [27]): Active
IC50 [28]: > 10 µM
IC50 [30]: > 10 µM
inhibition [31]: Dose-Dependent Effect
IC50 (Activin receptor type-2A): > 10 µM
IC50 (Focal adhesion kinase 1): > 10 µM
IC50 [32]: > 10 µM
IC50 [33]: > 10 µM
IC50 (CDK6/cyclin D3): > 10 µM
SMILES: COc1ccc(/C=C\c2cc(OC)c(OC)c(OC)c2)cc1NC(=O)CCC(=O)N[C@@H](CCCNC(=N)N)C(=O)O
Activity (PC-3 [2]): 0.16%
Activity (PC-3 [5]): 5.6%
Activity [7]: Non-Toxic
Activity (PC-3 [8]): 6.01%
Activity (PC-3 [11]): Active
IC50 (PC-3 [12]): 0.02 µM
inhibition (PC-3 [14]): Dose-Dependent Effect
Activity (PC-3 [15]): Active
Activity (PC-3 [17]): 34.85%
Activity (PC-3 [19]): 85.03%
IC50 at 48 h [20]: > 10 µM
Activity (PC-3 [22]): 84.75%
Activity (PC-3 [24]): 0.064%
Activity (HUVEC): Active
Activity (PC-3 [26]): 0.12%
Activity [29]: Non-Toxic
